This is an account of results in ChEMBL document CHEMBL1201862, “PubChem BioAssay data set” (2004).

Test systems include SF-295; M14; OVCAR-8; NCI-H23; K562; ACHN; SR; MDA-MB-435; HCT-15; 786-0; SK-OV-3; HCT-116; HL-60; SW-620; COLO 205; NCI-H522; Malme-3M; A549.
Common to all, as to assay: inhibition of tumour cell growth, NCI panel, 48 h

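Following 48 hours of exposure in 96-well plates, responses at five concentrations were used to interpolate endpoints linearly. Abbreviation: GI50, concentration required for 50% inhibition of growth.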 Calls of active or inactive are those of the source. Rule as the data show it: active = GI50 up to about 1.1 µM and inactive = higher. Where a SMILES comes first, the peptide text is derived from it. [ ]: non-standard residue; d: D form. Hiv = CC(C)[C@H](O)C(=O)O Bounds are passed on as bounds.

Consider `CCOC(=O)C(C)c1nc2cc3cccnc3c(Cl)c2[nH]c1=O` (centres undefined), for which the GI50 was > 100 µM (inactive) in the test with SF-295; > 100 µM (inactive) with M14; > 100 µM (inactive) in the test on OVCAR-8; > 100 µM (inactive) in the test with NCI-H23; > 100 µM (inactive) in the test with K562; 94.6 µM (inactive) in the test with ACHN. The GI50 was 73.6 µM (inactive) with SR; > 100 µM (inactive) in the test with MDA-MB-435; greater than 100 µM with HCT-15; > 100 µM (inactive) with 786-0; > 100 µM (inactive) in the test on SK-OV-3; > 100 µM (inactive) with HCT-116. Besides, the GI50 in the test with HL-60, with SW-620 and in the test on COLO 205 was > 100 µM (inactive) each time.

With `O=C1c2cccc(O)c2C(=O)c2c(OC3OC(CO)C(O)C(O)C3O)cccc21` (centres undefined), the GI50 is 48.5 µM (inactive) in the test on SF-295; 21.5 µM (inactive) in the test on M14; 15.8 µM (inactive) with NCI-H522; 31.8 µM (inactive) with OVCAR-8; 15.3 µM (inactive) in the test with NCI-H23; 48 µM (inactive) in the test on K562. For the same compound, the GI50 was 6.12 µM (inactive) in the test with Malme-3M; 61.7 µM (inactive) with ACHN; 32.4 µM (inactive) with SR; 18.2 µM (inactive) with MDA-MB-435; 27.3 µM (inactive) in the test with A549; 20.6 µM with HCT-15. The GI50 with 786-0 is 22.2 µM (inactive); in the test on SK-OV-3 it was 48.2 µM (inactive); in the test with HCT-116, 19.8 µM (inactive); with SW-620 it was 16.9 µM (inactive); with COLO 205, 19.4 µM (inactive).

In the case of `O=c1c(Cc2ccc(Cl)cc2)nnc2sc(-c3ccc(-c4ccc(F)c(Cl)c4)o3)nn12`, the GI50 in the test on SF-295 was 88.9 µM (inactive); in the test on M14, 64.6 µM (inactive); in the test with NCI-H522, 62.1 µM (inactive); with OVCAR-8, 58.7 µM (inactive); in the test with NCI-H23, 44.5 µM (inactive); with K562, 37.6 µM (inactive). For the same compound, the GI50 with Malme-3M is > 100 µM (inactive); in the test on ACHN, 35.7 µM (inactive); in the test on MDA-MB-435 it was 82 µM (inactive); in the test on A549, 51.3 µM (inactive); in the test with HCT-15, 34.9 µM; with 786-0, 71 µM (inactive). In addition, the GI50 in the test with SK-OV-3 is > 100 µM (inactive); in the test with HCT-116 it was 29.7 µM (inactive); in the test with HL-60 it was 43.7 µM (inactive); in the test with SW-620, 54.5 µM (inactive); in the test on COLO 205, 57.3 µM (inactive).

For `CC(=O)C(C(=O)c1ccc(C)cc1)[C@H]1OC(C)(C)O[C@H]1[C@H]1COC(C)(C)O1` (some centres undefined), the GI50 with SF-295 is 7.78 µM (inactive); with M14, 6.9 µM (inactive); with NCI-H522 it was 2.34 µM (inactive); in the test on OVCAR-8, 1.9 µM (inactive); with NCI-H23, 2.07 µM (inactive); in the test on K562, 1.78 µM (inactive). The GI50 in the test with Malme-3M is 6.92 µM (inactive); in the test on ACHN it was 6.15 µM (inactive); in the test on SR, 1.42 µM (inactive); in the test with MDA-MB-435 it was 2.24 µM (inactive); in the test on A549, 11.2 µM (inactive); in the test with HCT-15 it was 2.99 µM. The GI50 in the test on 786-0 was 2.88 µM (inactive); in the test with SK-OV-3 it was 10.3 µM (inactive); with HCT-116 it was 2.25 µM (inactive); in the test on SW-620, 1.84 µM (inactive); in the test with COLO 205, 10.3 µM (inactive).

With `Cc1c(C)c(S(=O)(=O)N(CCCN)OCCCN)c(C)c2c1OC(C)(C)C2`, the GI50 is 29.8 µM (inactive) in the test on SF-295; 18.1 µM (inactive) in the test with M14; 15.5 µM (inactive) in the test with NCI-H522; 80.5 µM (inactive) with OVCAR-8; 29.8 µM (inactive) in the test with NCI-H23; 35 µM (inactive) with K562. Moreover, the GI50 with Malme-3M is 18.5 µM (inactive); in the test on ACHN, 29.6 µM (inactive); with SR it was 34.8 µM (inactive); with MDA-MB-435, 53.7 µM (inactive); with A549 it was 44.1 µM (inactive); in the test on HCT-15 it was 68.7 µM. Moreover, the GI50 in the test on 786-0 is 25.5 µM (inactive); in the test on SK-OV-3, 39.4 µM (inactive); with HCT-116 it was 35.3 µM (inactive); with SW-620, 27.5 µM (inactive); in the test on COLO 205, 17.1 µM (inactive).

For `CC(C)[C@@H]1OC(=O)[C@@H](C)NC(=O)[C@@H]2CCCN2C1=O` (cyclo([Hiv]-Pro-[dA])), the GI50 in the test on SF-295, in the test with M14, with OVCAR-8, with NCI-H23, in the test with Malme-3M and with ACHN was > 100 µM (inactive) in each case. In addition, the GI50 with SR is > 100 µM (inactive); in the test with MDA-MB-435 it was > 100 µM (inactive); with A549, > 100 µM (inactive); with HCT-15 it was greater than 100 µM; in the test on 786-0, > 100 µM (inactive); in the test on SK-OV-3 it was > 100 µM (inactive). Also, the GI50 with HCT-116, with HL-60, in the test on SW-620 and in the test with COLO 205 was > 100 µM (inactive) in each case.

With `CC(=O)N1C(Nc2nccs2)CCN1c1ccccc1` (centres undefined), the GI50 in the test on SF-295, with M14, in the test with OVCAR-8, in the test on NCI-H23, with K562 and with Malme-3M was > 10 µM (inactive) each time. Also, the GI50 is > 10 µM (inactive) in the test on ACHN; > 10 µM (inactive) in the test with SR; > 10 µM (inactive) in the test on MDA-MB-435; > 10 µM (inactive) with A549; greater than 10 µM in the test on HCT-15; > 10 µM (inactive) in the test on 786-0. Further, the GI50 in the test on HCT-116, with HL-60, with SW-620 and in the test on COLO 205 was > 10 µM (inactive) each time.

On to `Cc1ccc(Cc2n[nH]c(=O)n2-c2ccccc2)cc1`, for which the GI50 in the test with SF-295, in the test with OVCAR-8, with NCI-H23, with K562, in the test on Malme-3M and with ACHN was > 100 µM (inactive) in each case. Moreover, the GI50 in the test on SR is > 100 µM (inactive); in the test on MDA-MB-435, > 100 µM (inactive); in the test with A549, > 100 µM (inactive); in the test with HCT-15, greater than 100 µM; in the test on 786-0, > 100 µM (inactive); in the test with HCT-116, > 100 µM (inactive). Moreover, the GI50 in the test with HL-60 and in the test with SW-620 was > 100 µM (inactive) in each case.

In the case of `CN(C)c1ncc(-c2c[nH]c3ccccc23)nc1-c1c[nH]c2ccccc12`, the GI50 with SF-295 is 2.33 µM (inactive); with M14, 1.89 µM (inactive); with OVCAR-8 it was 6.93 µM (inactive); in the test with K562, 2.8 µM (inactive); in the test on ACHN it was 2.67 µM (inactive); in the test with SR, 3.24 µM (inactive). The GI50 in the test on MDA-MB-435 was 3.31 µM (inactive); in the test with A549, 3.33 µM (inactive); in the test with HCT-15 it was 3.14 µM; in the test with 786-0 it was 2.12 µM (inactive); in the test on SK-OV-3, 7.66 µM (inactive); with HCT-116 it was 3.13 µM (inactive). For the same compound, the values for the GI50 in the test with HL-60, in the test on SW-620 and in the test on COLO 205 were 2.02 µM (inactive), 3.38 µM (inactive) and 2.3 µM (inactive), respectively.
